# Measurements taken from article PMC4320118, “Micheliolide Derivative DMAMCL Inhibits Glioma Cell Growth In Vitro and In Vivo” (PLoS ONE, 2015).
# “Also recorded” adds a separate entry of the source.
# Assay: Toxicity of DMAMCL, oral once a day for 21 days
# Type: in vivo, Wistar rats
# Design: Cr: unit not given here
# Conditions: for ALB / ALP / ALT / AST / CHOL / CK / Cr / GLU / TG / TP / Urea: serum
# Procedure: Wistar rats (150–170 g) were divided into the following 3 groups (6 rats /group): 1) vehicle control, 2) DMAMCL at 200 mg/kg, and 3) DMAMCL at 300 mg/kg. DMAMCL was administered orally once a day for 21 days. Rats were weighed on days 0, 3, 7, 11, 14, 17, and 21. Total food intake was measured as the weight of food consumed during a 24-h period on days 3, 8, 15, and 22. On the 23rd day, rats were anesthetized and sacrificed via CO2 asphyxiation. Peripheral blood was collected for hematological and serum biochemical analyses using a blood cell counter (Medonic M16, Boule medical AB, Sweden) and a Hitachi 7180 Automatic Analyzer (Japan). Tissues samples from the liver, spleen, lung, kidney, and brain were collected and embedded in paraffin for H&E staining.
# [1] = 200 mg/kg orally once a day for 21 days
# [2] = 300 mg/kg orally once a day for 21 days
structure (smiles),measurement,setting,value
"CC1=C2CC[C@@](C)(O)[C@@H]2[C@H]2OC(=O)[C@@H](CN(C)C)[C@@H]2CC1 [DMAMCL, dimethylaminomicheliolide]",GRAN%,[1],26.5 ± 3.3%
same,HCT%,[1],35.6 ± 1.2%
same,HGB,[1],145 ± 12.3 g/L
same,LYM%,[1],71.3 ± 6.3%
same,MCV,[1],55.5 ± 1.4 fL
same,MONO%,[1],2.1 ± 0.3%
same,PLT,[1],1195 ± 87 ×10^9/L
same,RBC,[1],6.73±1.3 ×10^12/L
same,RDW%,[1],18.5 ± 1.1%
same,WBC,[1],12.5 ± 2.5 ×10^9/L
same,GRAN%,[2],26.3 ± 4.1%
same,HCT%,[2],37.7 ± 0.8%
same,HGB,[2],140 ± 11.1 g/L
same,LYM%,[2],69.9 ± 6.0%
same,MCV,[2],53.5 ± 2.3 fL
same,MONO%,[2],2.9 ± 0.9%
same,PLT,[2],1132 ± 82 ×10^9/L
same,RBC,[2],6.37 ± 1.01 ×10^12/L
same,RDW%,[2],17.8 ± 0.7%
same,WBC,[2],11.9 ± 1.3 ×10^9/L
same,"Toxicity (body weight, daily food intake, histopathology, hematology, serum biochemistry)",200 or 300 mg/kg orally once a day for 21 days,did not result in toxicity; also recorded: No significant changes were observed; also recorded: did not lead to toxicity
same,ALB,[1],32.5 ± 3.01 g/L
same,ALP,[1],190 ± 19 U/L
same,ALT,[1],51 ± 10 U/L
same,AST,[1],98 ± 12 U/L
same,CHOL,[1],1.39 ± 0.67 mM
same,CK,[1],423 ± 35 U/L
same,Cr,[1],79 ± 23
same,GLU,[1],5.22 ± 2.01 mM
same,TG,[1],0.81 ± 0.23 mM
same,TP,[1],61.0 ± 4.6 g/L
same,Urea,[1],6.45 ± 2.3 mM
same,ALB,[2],34 ± 1.98 g/L
same,ALP,[2],179 ± 30 U/L
same,ALT,[2],49 ± 11 U/L
same,AST,[2],111 ± 15 U/L
same,CHOL,[2],1.42 ± 0.78 mM
same,CK,[2],523 ± 101 U/L
same,Cr,[2],80 ± 17
same,GLU,[2],5.23 ± 1.34 mM
same,TG,[2],0.69 ± 0.33 mM
same,TP,[2],58.3 ± 3.3 g/L
same,Urea,[2],7.33 ± 1.02 mM
